Results reported in patent US8084466B2, “Bicyclic heteroaryl-substituted imidazoles as modulators of the histamine H4 receptor” (Janssen Pharmaceutica NV, priority 2007, dated 2011).

biological target: T1, human histamine H4 receptor (Homo sapiens, UniProt Q9H3N8); assay: Binding Assay on Recombinant Human Histamine H4 Receptor; settings: competition binding with 3H-histamine (5 nM; KD 5 nM), membranes of SK-N-MC or COS7 cells expressing human H4 receptor; average of results; > = highest value tested
T1 construct: expressed in transfected cells; host or cells: SK-N-MC cells or COS7 cells, transient transfection with pH4R; cell membranes
Description: Biological Methods: Binding Assay on Recombinant Human Histamine H4 Receptor
SK-N-MC cells or COS7 cells were transiently transfected with pH4R and grown in 150 cm^2 tissue culture dishes. Cells were washed with saline solution, scraped with a cell scraper and collected by centrifugation (1000 rpm, 5 min). Cell membranes were prepared by homogenization of the cell pellet in 20 mM Tris-HCl with a polytron tissue homogenizer for 10 sec at high speed. Homogenate was centrifuged at 1000 rpm for 5 min at 4° C. The supernatant was then collected and centrifuged at 20,000×g for 25 min at 4° C. The final pellet was resuspended in 50 mM Tris-HCl. Cell membranes were incubated with ^3H-histamine (5-70 nM) in the presence or absence of excess histamine (10,000 nM). Incubation occurred at room temperature for […]. Membranes were harvested by rapid filtration over Whatman GF/C filters and washed 4 times with ice-cold 50 mM Tris HCl. Filters were then dried, mixed with scintillant and counted for radioactivity. SK-N-MC or COS7 cells expressing human histamine H4 receptor were used to measure the affinity of binding of other compounds and their ability to displace ^3H-ligand binding by incubating the above-described reaction in the presence of various concentrations of inhibitor or compound to be tested. For competition binding studies using ^3H-histamine, Ki values were calculated, based on an experimentally determined KD value of 5 nM and a ligand concentration of 5 nM, according to Y.-C.

SMILES | Ki [nM]
CN1CCC(CCCCn2ccc3c(-c4nc5c(F)cc(F)cc5[nH]4)cccc32)CC1 [Example 70, 4,6-Difluoro-2-{1-[4-(1-methyl-piperidin-4-yl)-butyl]-1H-indol-4-yl}-1H-benzoimidazole] | 102
CN1CCC(CCCCn2ccc3c(-c4nc5ccc6ccccc6c5[nH]4)cccc32)CC1 [Example 71, 2-{1-[4-(1-Methyl-piperidin-4-yl)-butyl]-1H-indol-4-yl}-1H-naphtho[1,2-d]imidazole] | 802
CN1CCC(CCCCn2cc(Cl)c3c(-c4nc5cccc(C(=O)c6ccccc6)c5[nH]4)cccc32)CC1 [Example 72, (2-{3-Chloro-1-[4-(1-methyl-piperidin-4-yl)-butyl]-1H-indol-4-yl}-3H-benzoimidazol-4-yl)-phenyl-methanone] | 545
Cc1ccc2[nH]c(-c3cccc4c3c(Cl)cn4CCCCC3CCNCC3)nc2c1C [Example 73, 2-[3-Chloro-1-(4-piperidin-4-yl-butyl)-1H-indol-4-yl]-4,5-dimethyl-1H-benzoimidazole] | 1710
Cc1ccc2[nH]c(-c3cccc4c3c(Cl)cn4CCCCC3CCN(C)CC3)nc2c1C [Example 74, 2-{3-Chloro-1-[4-(1-methyl-piperidin-4-yl)-butyl]-1H-indol-4-yl}-4,5-dimethyl-1H-benzoimidazole] | 1670
CN1CCC(CCCCn2cc(Cl)c3c(-c4nc5c(F)c(F)ccc5[nH]4)cccc32)CC1 [Example 75, 2-{3-Chloro-1-[4-(1-methyl-piperidin-4-yl)-butyl]-1H-indol-4-yl}-4,5-difluoro-1H-benzoimidazole] | 1000
c1cc(-c2nc3cc4c(cc3[nH]2)OCO4)c2ccn(CCCCC3CCNCC3)c2c1 [Example 76, 6-[1-(4-Piperidin-4-yl-butyl)-1H-indol-4-yl]-5H-[1,3]dioxolo[4′,5′:4,5]-benzo[1,2-d]imidazole] | 1940
O=C(c1ccccc1)c1ccc2[nH]c(-c3cccc4c3ccn4CCCCC3CCNCC3)nc2c1 [Example 77, Phenyl-{2-[1-(4-piperidin-4-yl-butyl)-1H-indol-4-yl]-1H-benzoimidazol-5-yl}-methanone] | 1670
Cc1ccc2[nH]c(-c3cccc4c3ccn4CCCCC3CCN(C)CC3)nc2c1C [Example 78, 4,5-Dimethyl-2-{1-[4-(1-methyl-piperidin-4-yl)-butyl]-1H-indol-4-yl}-1H-benzoimidazole] | 154
Cc1[nH]c(-c2ccc3c(ccn3CCCN3CCN(C)CC3)c2)nc1-c1cccc(C(F)(F)F)c1 [Example 79, 1-[3-(4-Methyl-piperazin-1-yl)-propyl]-5-[5-methyl-4-(3-trifluoromethyl-phenyl)-1H-imidazol-2-yl]-1H-indole] | 228
Cc1[nH]c(-c2ccc3c(ccn3CCCN3CCN(C)CC3)c2)nc1-c1ccc(Cl)cc1 [Example 80, 5-[4-(4-Chloro-phenyl)-5-methyl-1H-imidazol-2-yl]-1-[3-(4-methyl-piperazin-1-yl)-propyl]-1H-indole] | 1980
CCCc1[nH]c(-c2ccc3c(ncn3CCCC3CCN(C)CC3)c2C)nc1C [Example 81, 4-Methyl-1-[3-(1-methyl-piperidin-4-yl)-propyl]-5-(4-methyl-5-propyl-1H-imidazol-2-yl)-1H-benzoimidazole] | 953
Cc1nc(-c2ccc3c(ncn3CCCC3CCN(C)CC3)c2C)[nH]c1-c1ccc(C(F)(F)F)cc1 [Example 82, 4-Methyl-1-[3-(1-methyl-piperidin-4-yl)-propyl]-5-[4-methyl-5-(4-trifluoromethyl-phenyl)-1H-imidazol-2-yl]-1H-benzoimidazole] | 0.3
Cc1nc(-c2ccc3c(ncn3CCCC3CCN(C)CC3)c2C)[nH]c1-c1cc(Cl)cc(Cl)c1 [Example 83, 5-[5-(3,5-Dichloro-phenyl)-4-methyl-1H-imidazol-2-yl]-4-methyl-1-[3-(1-methyl-piperidin-4-yl)-propyl]-1H-benzoimidazole] | 0.3
Cc1c(-c2nc(C(F)(F)F)c(-c3ccccc3)[nH]2)ccc2c1ncn2CCCC1CCN(C)CC1 [Example 84, 4-Methyl-1-[3-(1-methyl-piperidin-4-yl)-propyl]-5-(5-phenyl-4-trifluoromethyl-1H-imidazol-2-yl)-1H-benzoimidazole] | 8
Cc1ccc(-c2nc(-c3ccc4c(ncn4CCCC4CCN(C)CC4)c3C)[nH]c2-c2ccc(Cl)cc2)cc1 [Example 85] | 5
Cc1c(F)ccc2[nH]c(-c3ccc4c(c3)c(CN(C)C)cn4CCCC3CCN(C)CC3)nc12 [Example 86, {5-(5-Fluoro-4-methyl-1H-benzoimidazol-2-yl)-1-[3-(1-methyl-piperidin-4-yl)-propyl]-1H-indol-3-ylmethyl}-dimethyl-amine] | > 10000
Cc1c(F)ccc2[nH]c(-c3ccc4c(c3)c(Cl)cn4CCCC3CCNCC3)nc12 [Example 87, 2-[3-Chloro-1-(3-piperidin-4-yl-propyl)-1H-indol-5-yl]-5-fluoro-4-methyl-1H-benzoimidazole] | 1830
Cc1c(F)ccc2[nH]c(-c3ccc4c(c3)c(Cl)cn4CCCC3CCN(C)CC3)nc12 [Example 88, 2-{3-Chloro-1-[3-(1-methyl-piperidin-4-yl)-propyl]-1H-indol-5-yl}-5-fluoro-4-methyl-1H-benzoimidazole] | > 10000
Cc1cc(C)c2nc(-c3ccc4c(c3)c(C)c(C)n4CCCC3CCNCC3)[nH]c2c1 [Example 89, 2-[2,3-Dimethyl-1-(3-piperidin-4-yl-propyl)-1H-indol-5-yl]-4,6-dimethyl-1H-benzoimidazole] | 2000
Cc1c(C)n(CCCC2CCNCC2)c2ccc(-c3nc4c(C)c(F)ccc4[nH]3)cc12 [Example 90, 2-[2,3-Dimethyl-1-(3-piperidin-4-yl-propyl)-1H-indol-5-yl]-5-fluoro-4-methyl-1H-benzoimidazole] | 2000
Cc1c(F)ccc2[nH]c(-c3cnc4c(ccn4CCCC4CCNCC4)c3)nc12 [Example 91, 5-Fluoro-4-methyl-2-[1-(3-piperidin-4-yl-propyl)-1H-pyrrolo[2,3-b]pyridin-5-yl]-1H-benzoimidazole] | 762
CN1CCC(CCCn2ccc3cc(-c4nc5cc(C(C)(C)C)ccc5[nH]4)cnc32)CC1 [Example 92] | 353

Second part, the compound after the results:

Ki [nM] | SMILES
1100 | Cc1c(F)ccc2[nH]c(-c3ccc4c(c3)CCN4CCCC3CCNCC3)nc12 [Example 93, 5-Fluoro-4-methyl-2-[1-(3-piperidin-4-yl-propyl)-2,3-dihydro-1H-indol-5-yl]-1H-benzoimidazole]
600 | Clc1ccc2[nH]c(-c3ccc4c(c3)CCN4CCCC3CCNCC3)nc2c1 [Example 94, 5-Chloro-2-[1-(3-piperidin-4-yl-propyl)-2,3-dihydro-1H-indol-5-yl]-1H-benzoimidazole]
390 | Cc1cccc2[nH]c(-c3ccc4c(c3)CCN4CCCC3CCNCC3)nc12 [Example 95, 4-Methyl-2-[1-(3-piperidin-4-yl-propyl)-2,3-dihydro-1H-indol-5-yl]-1H-benzoimidazole]
103 | Cc1c(F)ccc2[nH]c(-c3ccc4c(c3)CCN4CCCC3CCN(C)CC3)nc12 [Example 96, 5-Fluoro-4-methyl-2-{1-[3-(1-methyl-piperidin-4-yl)-propyl]-2,3-dihydro-1H-indol-5-yl}-1H-benzoimidazole]
43 | CN1CCC(CCCN2CCc3cc(-c4nc5cc(Cl)ccc5[nH]4)ccc32)CC1 [Example 97, 5-Chloro-2-{1-[3-(1-methyl-piperidin-4-yl)-propyl]-2,3-dihydro-1H-indol-5-yl}-1H-benzoimidazole]
157 | Cc1cccc2[nH]c(-c3ccc4c(c3)CCN4CCCC3CCN(C)CC3)nc12 [Example 98, 4-Methyl-2-{1-[3-(1-methyl-piperidin-4-yl)-propyl]-2,3-dihydro-1H-indol-5-yl}-1H-benzoimidazole]
2670 | Fc1cc(F)c2nc(-c3cc4ccn(CCCC5CCNCC5)c4cc3Cl)[nH]c2c1 [Example 99, 2-[6-Chloro-1-(3-piperidin-4-yl-propyl)-1H-indol-5-yl]-4,6-difluoro-1H-benzoimidazole]
3330 | Cc1ccc2[nH]c(-c3cc4ccn(CCCC5CCNCC5)c4cc3Cl)nc2c1C [Example 100, 2-[6-Chloro-1-(3-piieridin-4-yl-propyl)-1H-indol-5-yl]-4,5-dimethyl-1H-benzoimidazole]
3330 | Clc1ccc2[nH]c(-c3cc4ccn(CCCC5CCNCC5)c4cc3Cl)nc2c1 [Example 101, 5-Chloro-2-[6-chloro-1-(3-piperidin-4-yl-propyl)-1H-indol-5-yl]-1H-benzoimidazole]
> 10000 | CN1CCC(CCCn2ccc3cc(-c4nc5cc(Cl)ccc5[nH]4)c(Cl)cc32)CC1 [Example 102, 5-Chloro-2-{6-chloro-1-[3-(1-methyl-piperidin-4-yl)-propyl]-1H-indol-5-yl}-1H-benzoimidazole]
2770 | Cc1ccc2[nH]c(-c3cc4ccn(CCCC5CCN(C)CC5)c4cc3Cl)nc2c1C [Example 103, 2-{6-Chloro-1-[3-(1-methyl-piperidin-4-yl)-propyl]-1H-indol-5-yl}-4,5-dimethyl-1H-benzoimidazole]
